The values that follow come from US10072027B2, “Preparation of high-purity gadobutrol” (BAYER INTELLECTUAL PROPERTY GMBH, priority 2011, dated 2018).

Holding throughout (assay type): physicochemical
The nature of data set [1]: Solubility of polymorphs I and II in water. Particulars: for Solubility in water: at 20° C. in water.
Data set [2] in a line: Stability on storage under ICH conditions. An excerpt: Three batches of monohydrate I and one batch of monohydrate II were stored under ICH conditions. […] No decomposition products were observed, and no other parameters of the specification were changed substantially. On storage, the batches maintained their solid state.
A short description of data set [3]: Dissolution of the active compound during preparation of the pharmaceutical. On the procedure: Differences between the two monohydrates I and II were observed during dissolution of the active compound. In general, the time required to get monohydrate I into solution is 45 minutes at 40-50° C.
Setting [4] is: 6 months at 40° C./75% relative atmospheric humidity.
The mark [5] stands for this setting: 36 months at 25° C./60% relative atmospheric humidity.
Where [6] appears, read: 36 months at 30° C./75% relative atmospheric humidity.

`O.O=C([O-])CN1CCN(CC(=O)[O-])CCN([C@H](CO)[C@H](O)CO)CCN(CC(=O)[O-])CC1.[Gd+3]` [monohydrate I] had a Solubility in water in data set [1] of 1081 ± 2 mg/mL. Also, the Stability on storage result in data set [2] (setting [4]), in data set [2] (setting [5]) and in data set [2] (setting [6]) was “remained unchanged” each time. Further, in data set [3] (at 40-50° C.), the “time required to get into solution” value amounted to 45 min.
Turning to `O=C([O-])CN1CCN(CC(=O)[O-])CCN(C(CO)C(O)CO)CCN(CC(=O)[O-])CC1.[Gd+3]` (centres unmarked) [gadobutrol, Gd complex of N-(1-hydroxymethyl-2,3-dihydroxypropyl)-1,4,7-triscarboxymethyl-1,4,7,10-tetraazacyclododecane], the “Solubility in water (in words)” value in data set [1] (water) is given as “soluble in water in almost any ratio”.
`O.O=C([O-])CN1CCN(CC(=O)[O-])CCN([C@H](CO)[C@H](O)CO)CCN(CC(=O)[O-])CC1.[Gd+3]` [monohydrate II] showed a Solubility in water in data set [1] of 922 ± 9 mg/mL. Besides, the Stability on storage entry in data set [2] (setting [4]), in data set [2] (setting [5]) and in data set [2] (setting [6]) was “remained unchanged” throughout. The “dissolution state during the time monohydrate I needs” value in data set [3] (45 minutes at 40-50° C.) is on record as “incompletely dissolved”.
